From PMC8233204, “Cardiac myosin-binding protein C interaction with actin is inhibited by compounds identified in a high-throughput fluorescence lifetime screen” (The Journal of Biological Chemistry, 2021)
Entries after “also recorded” stand apart in the source; their conditions may differ. Read-outs that look alike come from different tables or passages of the source.

How the values were obtained:
C0-C2 = target: T1, C0-C2 (Homo sapiens, UniProt Q14896); experiment: Visible light scattering (C0-C2 aggregation); settings: 2 or 10 μM C0-C2 mixed with compound for 20 min
T1 construct: N-terminal domains C0 through C2 (C0-C2), containing the proline/alanine-rich linker (P/A) and the M-domain (M); 6x His (N, cleaved yes); TEV protease cleavage site (N, cleaved yes); made in house; host or cells: E. coli BL21DE3
Description: All three drugs were tested for causing C0-C2 to aggregate by measuring absorbance in the visible range beyond the absorption of protein or the drugs themselves. Observed absorbance in these wavelengths is actually loss of transmitted light due to light scattering from aggregated C0-C2. 2 or 10 μM of C0-C2 was mixed with 20 μM of suramin, NF023, or ATA for 20 min and wavelengths 250–600 nm were scanned using a Beckman Coulter DU730 UV/Vis Spectrophotometer to determine optical density. The same was done with 2 or 10 μM of C0-C2 and 20 μM of suramin, NF023, or ATA alone.

[1] = target: AF568-actin:phosphorylated (by PKA) C0-C2 (Homo sapiens, UniProt Q14896); experiment: TR-F concentration-response assay, AF568-actin with PKA-phosphorylated C0-C2; settings: for TR-F+PKA n: 3 μM phosphorylated C0-C2, n not defined in table
Description: (§5) Using the same conditions as in the primary screen, we determined the concentration dependence of each of the three Hit compounds on the AF568-actin lifetime effects. […] In a separate dose–response assay utilizing 3 μM C0-C2, we compared the effects of the compounds on nonphosphorylated and phosphorylated C0-C2. […] In the second dose-response assay, 3 μM instead of 2 μM C0-C2 was used in the second dose–response assay so that effects of compounds on phosphorylated C0-C2 could be readily detected, as phosphorylation of C0-C2 itself (in the absence of compounds) reduces binding to actin.
C0-C2 was treated with 7.5 ng PKA/μg C0-C2 at 30 °C for 30 min.
The Hit compounds were dissolved in DMSO to make a 10 mM stock solution, which was serially diluted in 96-well mother plates. Hits were screened at eight concentrations (0.5–100 μM). Compounds (1 μl) were transferred from the mother plates into 384-well plates using a Mosquito HV liquid handler (TTP Labtech Ltd). The same procedure of dispensing as for the pilot screening was applied in the TR-F concentration–response assays.

[2] = target: T2, AF568-actin:C0-C2 (actin-cMyBP-C binding) (Homo sapiens, UniProt Q14896); experiment: TR-F concentration-response assay, AF568-actin with C0-C2; settings: 2 μM C0-C2; for EC50: 1 μM AF568-actin, mean ± SE; for TR-F n: n not defined in table
Description: as §5
The Hit compounds were dissolved in DMSO to make a 10 mM stock solution, which was serially diluted in 96-well mother plates. Hits were screened at eight concentrations (0.5–100 μM). Compounds (1 μl) were transferred from the mother plates into 384-well plates using a Mosquito HV liquid handler (TTP Labtech Ltd). The same procedure of dispensing as for the pilot screening was applied in the TR-F concentration–response assays. Concentration dependence of the TR-F change was fitted using the Hill equation ([38]):(3) τ=τo+τmaxC^α/EC50α+C^α where τ and τ0 are TR-F in the presence and in the absence of the compound, τmax is the maximum effect, C is the compound concentration, EC50 is the compound concentration for which 50% of maximum effect is obtained, and α is the Hill coefficient of sigmoidicity.

[3] = target: T3, FMAL-actin:TMR-C0-C2^Cys225 (Homo sapiens, UniProt Q14896, C239L/C249S/C426T/C436V/C443S/H225C); experiment: FMAL-actin-TMR-C0-C2 TR-FRET binding assay; settings: 1 μM FMAL-actin, 2 μM TMR-C0-C2, both nonphosphorylated and phosphorylated C0-C2
T3 construct: N-terminal domains C0 through C2 (C0-C2), containing the proline/alanine-rich linker (P/A) and the M-domain (M); 6x His (N, cleaved yes); TEV protease cleavage site (N, cleaved yes); made in house; host or cells: E. coli BL21DE3 (C0-C2^Cys225); actin purified from rabbit skeletal muscle
Description: In total, 1 μM F-Actin labeled (to 10%) on Cys-374 with FMAL (donor fluor) was incubated with increasing concentrations (0–20 μM) of C0-C2^Cys225 unlabeled (for donor only (D) data acquisition) or labeled to 95% with TMR (acceptor fluor) (for donor–acceptor (DA) data). Lifetimes of FMAL-actin were determined for D and DA at each concentration of C0-C2^Cys225. TR-FRET efficiency (1 – (τDA/τD)) was determined for each C0-C2^Cys225 concentration. The binding curve was generated from data from two separate preparations of actin and C0-C2^Cys225. Testing of compound effects by TR-FRET was similarly done at 1 μM FMAL-actin with unlabeled C0-C2^Cys225 (D) and TMR-C0-C2^Cys225 (DA), both at 2 μM.

[4] = target: C0-C2 portion of human cMyBP-C (Homo sapiens, UniProt Q14896); experiment: Isothermal titration calorimetry (ITC) of compounds binding to C0-C2; settings: for ITC ΔS / ITC ΔH / ITC ΔG: Table 1 average; for ITC ΔS: no unit in table (Fig. 4: J/mol•K); for ITC ΔH: no unit in table (Fig. 4: kJ/mol); for ITC ΔG: unit not given; for ITC n (stoichiometry, compound per C0-C2): average of two preparations
F-actin = target: T4, F-actin (Oryctolagus cuniculus, UniProt P68135); experiment: ITC of compounds with actin alone; format: binding, rabbit; settings: actin alone
T4 construct: Actin was prepared from rabbit skeletal muscle by extracting acetone powder; from tissue; host or cells: rabbit skeletal muscle (acetone powder)
Description: The titration of compounds binding to cMyBP-C was performed on an Affinity ITC (TA Instruments). Each compound in M-ABB buffer (2000–3000 μM) was titrated into C0-C2 in M-ABB buffer (100 μM, 350 μl). For the titration, a preliminary 2.5-μl injection (ignored in data analysis) was followed by 19–39 subsequent 2.5-μl injections with 4 min waits between each injection. The reference cell was filled with distilled water. To account for heat changes of dilution and mechanical mixing, binding data were corrected by subtraction of the final plateau injection values (when binding is complete) prior to curve fitting. Corrected binding data was processed using the NanoAnalyze analysis software (TA Instruments).
Figure S2. ITC of Suramin binding to actin alone. (A) Titration of 100 µM F-actin (in 350 µl) with 40 2.5
µl injections of 3,000 µM Suramin. (B) Fitted ITC binding curve for Suramin binding. Binding to actin was
for Suramin with actin alone (Kd ~200 µM).
(1 picture or pasted object on this page, not shown here)

[5] = target: T2, AF568-actin:C0-C2 (actin-cMyBP-C binding); experiment: TR-F high-throughput screen of LOPAC library, AF568-actin with C0-C2; settings: for Actin-MyBP-C Drug Δτ, Screen 1 / Actin-MyBP-C Drug Δτ, Screen 2 / Actin-MyBP-C Drug Δτ, Sub-optimal Screen 3 / Actin-MyBP-C Drug Δτ, Sub-optimal Screen 4 / average change in lifetime, SD above the median of all compounds not excluded: 10 μM compound, 1 μM AF568-actin, 2 μM C0-C2; for average change in lifetime, SD above the median of all compounds not excluded: average of screens; for Difference, Screen 1 / Difference, Screen 2 / Difference, Sub-optimal Screen 3 / Difference, Sub-optimal Screen 4: Δτ actin+C0-C2 after subtracting effect on actin alone
Description: (§1) The 1280 LOPAC compounds were received in 96-well plates (LOPAC^1280, Sigma-Aldrich) and were reformatted into 1536-well flat, black-bottom polypropylene plates (Greiner Bio-One). In total, 50 nl of compounds was dispensed using an automated Echo 550 acoustic liquid dispenser (Labcyte). LOPAC compounds were formatted into plates, with the first two and last two columns loaded with 50 nl of DMSO and used for compound-free controls. The final concentration of the compounds was 10 μM. These assay plates were then heat-sealed using a PlateLoc Thermal Microplate Sealer (Agilent Technologies) and stored at –20 °C. Before screening, compound plates were equilibrated to room temperature (25 °C). In total, 1 μM AF568-labeled actin without or with 2 μM C0-C2 in M-ABB was dispensed by a Multidrop Combi Reagent Dispenser (Thermo Fisher Scientific) into the 1536-well assay plates containing the compounds. Plates were incubated at room temperature for 20 min before recording the data with the FLTPR. Plates were rescanned after 120 min incubation.
(§2) Two full screens were done using different batches of AF568-labeled actin, C0-C2, and test compounds.
(§3) Following data acquisition, TR-F waveforms observed for each well were convolved with the IRF to determine the lifetime (τ) (Equation 1) by fitting to a single-exponential decay ([15], [35]).
(§4) A compound was considered a Hit if it was in the top 25 compounds in each of two independent screenings of the LOPAC. Top compounds were those that increased the lifetime of AF568-actin when C0-C2 was present (indicating inhibition of C0-C2 binding). Compounds that altered AF568-actin lifetime when C0-C2 was not present by >4 SD relative to that of the control samples (those exposed to 0.1% DMSO) were first removed from the analysis. […] Any change in lifetime induced by a compound on AF568-actin alone was then subtracted from the effect of the compound on AF568-actin when C0-C2 was present. The resulting C0-C2-dependent change for all compounds was ranked.

AF568-actin = target: T5, AF568-actin (Oryctolagus cuniculus, UniProt P68135); experiment: TR-F high-throughput screen, AF568-actin alone (no C0-C2); format: binding, rabbit; settings: 10 μM compound; 1 μM AF568-actin alone
T5 construct: Actin was prepared from rabbit skeletal muscle by extracting acetone powder; from tissue; host or cells: rabbit skeletal muscle (acetone powder)
Description: as §1, §2, §3, §4

[6] = compound binding to C0-C2, mean ± SE, two protein preparations, read-out: ITC Kd
[7] = single titration shown in Fig. 4
[8] = single titration shown in Fig. 4, 100 μM C0-C2, read-out: ITC Kd (fitted curve of Figure 4)

Sequence of C0-C2 portion of human cMyBP-C (Q14896 1-451 limits assumed): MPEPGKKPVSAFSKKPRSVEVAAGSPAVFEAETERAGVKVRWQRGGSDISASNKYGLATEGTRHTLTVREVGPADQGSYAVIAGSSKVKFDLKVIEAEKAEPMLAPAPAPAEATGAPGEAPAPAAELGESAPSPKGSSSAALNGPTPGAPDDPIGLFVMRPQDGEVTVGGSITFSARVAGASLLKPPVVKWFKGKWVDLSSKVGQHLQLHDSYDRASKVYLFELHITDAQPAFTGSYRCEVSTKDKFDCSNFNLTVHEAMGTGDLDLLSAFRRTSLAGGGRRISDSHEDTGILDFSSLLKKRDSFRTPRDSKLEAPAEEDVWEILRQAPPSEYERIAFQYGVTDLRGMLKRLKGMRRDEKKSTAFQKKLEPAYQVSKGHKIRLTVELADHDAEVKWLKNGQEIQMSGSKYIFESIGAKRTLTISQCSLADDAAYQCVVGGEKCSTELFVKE
T2 sequence (Q14896 1-451 limits assumed): as above
Sequence of AF568-actin:phosphorylated (by PKA) C0-C2 (Q14896 1-451 limits assumed): as above
T3 sequence (Q14896 1-451 H225C/C239L/C249S/C426T/C436V/C443S limits assumed): as the sequence (Q14896 1-451 limits assumed) above, with H225C, C239L, C249S, C426T, C436V, C443S counted along it
T1 sequence (Q14896 1-451 limits assumed): as the sequence (Q14896 1-451 limits assumed) above

SMILES: O=C(O)C1=CC(=C(c2ccc(O)c(C(=O)O)c2)c2ccc(O)c(C(=O)O)c2)C=CC1=O [ATA, aurintricarboxylic acid]
- absorbance in the visible range (light scatter, C0-C2 aggregation) (C0-C2): detected absorption
- EC50 [1]: 4.3 ± 0.9 µM
- TR-F+PKA n [1]: 1.4
- EC50 [2]: 7.9 ± 1.9 µM
- TR-F n [2]: 3.4
- TR-FRET measured binding of C0-C2 to actin, effect of compound ([3]; 20 μM compound): almost completely eliminated; also recorded: near zero
- ITC ΔS [4]: 52.9
- ITC ΔH [4]: −10.2
- ITC ΔG [4]: −25.8
- ITC n (stoichiometry, compound per C0-C2) [4]: 3.1
- Kd [4, 6]: 25.9 ± 2.2 µM
- ITC n (fitted curve of Figure 4) [4, 7]: 2.1
- ITC ΔH (fitted curve of Figure 4) [4, 7]: -10.4 kJ/mol
- ITC ΔS (fitted curve of Figure 4) [4, 7]: 51.5 J/mol•K
- Kd [4, 8]: 28.1 µM
- ITC interaction with F-actin (in words) (F-actin): not apparent; also recorded: no interaction
- Actin-MyBP-C Drug Δτ, Screen 1 [5]: 0.008 ns
- Actin-MyBP-C Drug Δτ, Screen 2 [5]: 0.06 ns
- Actin-MyBP-C Drug Δτ, Sub-optimal Screen 3 [5]: 0.07 ns
- Actin-MyBP-C Drug Δτ, Sub-optimal Screen 4 [5]: 0.07 ns
- average change in lifetime, SD above the median of all compounds not excluded [5]: 3.0 SD
- Difference, Screen 1 [5]: 0.04 ns
- Difference, Screen 2 [5]: 0.06 ns
- Difference, Sub-optimal Screen 3 [5]: 0.10 ns
- Difference, Sub-optimal Screen 4 [5]: 0.07 ns
- Actin Drug Δτ, Screen 1 (AF568-actin): -0.04 ns
- Actin Drug Δτ, Screen 2 (AF568-actin): 0.00 ns
- Actin Drug Δτ, Sub-optimal Screen 3 (AF568-actin): -0.03 ns
- Actin Drug Δτ, Sub-optimal Screen 4 (AF568-actin): 0.00 ns

SMILES: O=C(Nc1cccc(C(=O)Nc2ccc(S(=O)(=O)O)c3cc(S(=O)(=O)O)cc(S(=O)(=O)O)c23)c1)Nc1cccc(C(=O)Nc2ccc(S(=O)(=O)O)c3cc(S(=O)(=O)O)cc(S(=O)(=O)O)c23)c1 [NF023]
- absorbance in the visible range (light scatter, C0-C2 aggregation) (C0-C2): did not detect absorption
- TR-F+PKA n [1]: 1.8
- EC50 ([1]; read-out: TR-F+PKA EC50, 1 μM AF568-actin, 3 μM PKA-phosphorylated C0-C2, mean ± SE): 17.5 ± 11.8 µM
- EC50 [2]: 16.3 ± 1.2 µM
- TR-F n [2]: 3.2
- TR-FRET measured binding of C0-C2 to actin, effect of compound ([3]; 50 μM compound): almost completely eliminated
- ITC ΔS [4]: −19.2
- ITC ΔH [4]: −30.2
- ITC ΔG [4]: −24.6
- ITC n (stoichiometry, compound per C0-C2) [4]: 2.1
- Kd [4, 6]: 42 ± 3.4 µM
- ITC n (fitted curve of Figure 4) [4, 7]: 2.6
- ITC ΔH (fitted curve of Figure 4) [4, 7]: -31.1 kJ/mol
- ITC ΔS (fitted curve of Figure 4) [4, 7]: 20.9 J/mol•K
- Kd [4, 8]: 35.1 µM
- ITC interaction with F-actin (in words) (F-actin): not apparent; also recorded: no interaction
- Actin-MyBP-C Drug Δτ, Screen 1 [5]: 0.058 ns
- Actin-MyBP-C Drug Δτ, Screen 2 [5]: 0.07 ns
- Actin-MyBP-C Drug Δτ, Sub-optimal Screen 3 [5]: 0.06 ns
- Actin-MyBP-C Drug Δτ, Sub-optimal Screen 4 [5]: 0.04 ns
- average change in lifetime, SD above the median of all compounds not excluded [5]: 3.8 SD
- Difference, Screen 1 [5]: 0.09 ns
- Difference, Screen 2 [5]: 0.06 ns
- Difference, Sub-optimal Screen 3 [5]: 0.08 ns
- Difference, Sub-optimal Screen 4 [5]: 0.03 ns
- Actin Drug Δτ, Screen 1 (AF568-actin): -0.03 ns
- Actin Drug Δτ, Screen 2 (AF568-actin): 0.01 ns
- Actin Drug Δτ, Sub-optimal Screen 3 (AF568-actin): -0.02 ns
- Actin Drug Δτ, Sub-optimal Screen 4 (AF568-actin): 0.01 ns
